Measurements reported in article PMC9405973, “Altered Conformational Landscape upon Sensing Guanine Nucleotides in a Disease Mutant of Elongation Factor-like 1 (EFL1) GTPase” (Biomolecules, 2022).
“And” between values parts separate entries of the source, which are not always exact repeats. Equal values may be shown once.

Target: T1, Efl1 R1086Q P151L (Saccharomyces cerevisiae, UniProt P53893, P151L/R1086Q)
T1 construct: made in house; host or cells: Saccharomyces cerevisiae
Experiment: ITC: binding of GTP to double mutant Efl1 R1086Q P151L
Settings: +Mg^2+

T1 sequence (P53893 whole entry P151L/R1086Q): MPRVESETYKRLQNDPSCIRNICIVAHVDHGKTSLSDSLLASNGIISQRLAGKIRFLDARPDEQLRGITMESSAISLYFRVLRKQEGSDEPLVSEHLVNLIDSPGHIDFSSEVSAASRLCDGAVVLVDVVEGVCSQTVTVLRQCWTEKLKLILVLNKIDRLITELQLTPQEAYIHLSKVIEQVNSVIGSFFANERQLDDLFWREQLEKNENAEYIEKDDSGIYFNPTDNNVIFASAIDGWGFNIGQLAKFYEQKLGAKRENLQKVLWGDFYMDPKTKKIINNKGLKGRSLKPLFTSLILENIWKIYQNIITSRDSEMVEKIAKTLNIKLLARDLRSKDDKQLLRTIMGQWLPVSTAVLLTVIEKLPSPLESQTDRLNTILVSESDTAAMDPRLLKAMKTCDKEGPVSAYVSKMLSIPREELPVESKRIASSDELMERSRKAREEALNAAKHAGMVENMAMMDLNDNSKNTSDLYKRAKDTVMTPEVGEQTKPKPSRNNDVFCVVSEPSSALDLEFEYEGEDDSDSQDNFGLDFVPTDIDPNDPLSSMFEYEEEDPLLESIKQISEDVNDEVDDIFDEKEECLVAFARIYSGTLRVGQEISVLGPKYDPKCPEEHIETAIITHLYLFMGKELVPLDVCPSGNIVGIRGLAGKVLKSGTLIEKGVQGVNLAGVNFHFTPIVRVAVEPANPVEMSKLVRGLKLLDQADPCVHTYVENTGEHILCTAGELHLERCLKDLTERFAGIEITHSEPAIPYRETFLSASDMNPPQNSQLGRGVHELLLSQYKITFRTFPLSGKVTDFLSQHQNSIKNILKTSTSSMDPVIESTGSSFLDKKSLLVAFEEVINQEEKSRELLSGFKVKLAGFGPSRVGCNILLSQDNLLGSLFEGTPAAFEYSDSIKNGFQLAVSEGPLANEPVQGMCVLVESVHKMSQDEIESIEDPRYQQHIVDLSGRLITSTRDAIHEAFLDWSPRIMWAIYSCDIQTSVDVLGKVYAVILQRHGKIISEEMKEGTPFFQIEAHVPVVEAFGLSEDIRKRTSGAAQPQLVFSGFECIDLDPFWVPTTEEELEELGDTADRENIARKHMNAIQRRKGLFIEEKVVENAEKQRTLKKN

With Nc1nc2c(ncn2[C@@H]2O[C@H](COP(=O)(O)OP(=O)(O)OP(=O)(O)O)[C@@H](O)[C@H]2O)c(=O)[nH]1 [GTP] the “-TΔSb” value (25 °C) was -4.8 kcal/mol, the ΔGb (25 °C) was -6.5 kcal/mol and the ΔHb (25 °C) was -1.7 ± 0.1 kcal/mol. The “-TΔSb” value (30 °C) was -4.1 kcal/mol, the “Nconfres (number of residues changing conformation, absolute value)” value (30 °C) was 19 and the “Nconfrotb (number of routable bonds changing conformation, absolute value)” value (30 °C) was 19. The ΔCpconf (30 °C) was −195 cal mol^−1 K^−1, the ΔCprb (30 °C) was −25 cal mol^−1 K^−1 and the ΔGb (30 °C) was -6.6 kcal/mol. For the same compound, the ΔHb (30 °C) was -2.5 ± 0.1 kcal/mol, the ΔSb (30 °C) was 13 cal mol^−1 K^−1 and the ΔSconf (30 °C) was −31 cal mol^−1 K^−1. The ΔSsolv (30 °C) was 53 cal mol^−1 K^−1, the “−ΔASAconf” value (30 °C) was 875 Å^2 and the “-TΔSb” value (35 °C) was -2.8 kcal/mol. For the same compound, the ΔGb (35 °C) was -6.7 kcal/mol, the ΔHb (35 °C) was -3.9 ± 0.1 kcal/mol and the ΔCpb (from ΔHb at 25–35 °C) was −220 ± 35 cal mol^−1 K^−1 and −220 cal mol^−1 K^−1. The Kd (25 °C) was 18 ± 3 µM, the Kd (30 °C) was 17 ± 2 µM and the Kd (35 °C) was 18 ± 2 µM.
